From US8946381B2, “Compositions and uses thereof for the treatment of wounds” (Phylogica Limited, priority 2006, dated 2015)
“Also recorded” adds a separate entry of the source.

Legend:
[1] = system: full-thickness burn wound; assay: full-thickness burn wound model in mice, gross morphology and re-epithelialisation; type: in vivo, C57/B16 mice
Method: 8 week old C57/B16 mice were purchased from the Animal Resource Center, Murdoch University, Western Australia and used for all experiments. All experiments were approved by the necessary institutional animal ethics committees and were performed in accordance with the National Health and Medical Research Council (NHMRC) Australian Code of Practice for the Care and Use of Animals for Scientific Purposes.
(§1) A full-thickness burn wound was generated in a murine subject using a modified protocol based on a model previously described (Bruen et al., J Surg Res, 120: 12-20, 2004). Briefly, mice (n=34) were anesthetised (xylazine (10 mg/kg) and ketamine (100 mg/kg)) and subsequently given a full-thickness 10 mm diameter burn by contact with a brass rod (65 g) heated to 95° C. and applied for 9 seconds. 10 control animals were sacrificed post-burn, and histology confirmed all burns were full-thickness. The remaining animals (n=24) were re-hydrated and given analgesics subcutaneously immediately post-burn. The wounds were then dressed using a Tegapore™ membrane dressing (3M Healthcare Ltd) and either phosphate buffered saline (PBS) or PBS containing 20 μM peptide were instilled into the Tegapore™ and administered topically. The mice were then wrapped with a secondary absorbent dressing with minimal pressure so as not to constrict breathing and to allow free movement of the animal after recovery. Ten minutes post-injury, dressings were removed and animals allowed to recover from anesthesia in their cages with feed and water provided ad libitum.
Wounds were harvested on post-injury days 1, 3, 7 and 11 (n=3 for each time-point for both treated and control groups). Each wound was bisected along the cranial-caudal axis and one half of the tissue fixed in 4% paraformaldehyde solution and the other half stored as frozen tissue. Haematoxylin and Eosin stained sections were used to determine the quality of wound healing.
Progress of re-epithelialisation was quantitated by measuring distance between leading epithelial edges using an eye-piece graticule on histological slides. Difference between treated and control wounds was analysed using standard two-tail t-TEST for two-samples assuming unequal variance. p<0.05 is defined as the level of statistical significance.

[2] = system: apoptosing epidermal cells surrounding the burn injury; assay: TUNEL assay on burn wound tissue sections; type: in vivo, C57/B16 mice; details: one day after burning
Method: as §1, with “Ten minutes post-injury, dressings were removed and animals allowed to recover from anesthesia in their cages with feed and water provided ad libitum.” left out
Tissue sections were labelled using TUNEL (Tdt-mediated dUTP Nick End Labelling) assay as previously described 13. […] Intensity of TUNEL staining was quantitated using Image J software (available from The National Institutes of Health, USA). Intensity of staining of individual nuclei were measured and normalised against the background. […]

[3] = system: fibroblast cells; assay: MTT colorimetric proliferation assay, fibroblasts; type: cell-based; details: 100 nm, 1 μM or 10 μM, 24, 48 or 72 hours
Method: (§2) Cultures of keratinocytes (HaCaT cells) or fibroblasts were cultured in a microwell plate the presence of a peptide analog comprising the amino acid sequence set forth in SEQ ID NO: 104 at a concentration of 100 nm, 1 μM or 10 μM. Following an incubation period 24 hours, 48 hours, or 72 hours, cells were incubated in the presence of MTT for a sufficient time for a mitochondrial dehydrogenase enzyme from viable cells to cleave the tetrazolium rings of the pale yellow MTT and form dark blue formazan crystals. Cells were then solubilized and the level of […] crystals determined using a microtitre plate reader at 492 nm.

[4] = system: HaCaT keratinocytes; assay: MTT colorimetric proliferation assay, keratinocytes; type: cell-based; details: 100 nm, 1 μM or 10 μM, 24, 48 or 72 hours
Method: as §2

## H-rerrsssqiGGsrisqyaGrrrqrrkkrG-NH2 [SEQ ID NO: 104]
[1]; day 7 post-burn
  gross morphology of wound: Early reepithelialization is present and separation of the eschar evident
[1]; day 7 post-burn, 20 μM peptide in PBS topical
  gap without epidermis (not re-epithelialized): 2 mm
[1]; day 11 post-burn, 20 μM peptide in PBS topical
  re-epithelialization of wound: re-epithelialized by day 11; also recorded: all the treated wounds are covered; also recorded: completely re-epithelialized
[1]; day 11 post-burn, 20 μM peptide in PBS topically via Tegapore dressing for ten minutes
  eschar diameter: < 2 mm
[1]; day 11 post-burn, histology
  scarring (de novo hair follicle morphogenesis): scarring has not occurred
[1]; within 24 hours post-injury, 20 μM peptide in PBS topical
  wound size between leading epidermal edges: 10 mm
[2]; 500 μm from the wound edge
  TUNEL staining intensity vs control: marked difference in intensity
[2]; 1500 μm from the wound edge
  TUNEL positive staining in epidermis: complete lack of positive staining
[3]
  cellular proliferation (MTT): did not stimulate proliferation
[4]
  cellular proliferation (MTT) vs untreated cells: increased cellular proliferation rates; also recorded: enhanced and/or induced proliferation
